We go through one compound from EPA's ToxValDB 9.5 (doi:10.2903/j.efsa.2010.1526).

Converted amounts (≈) assume the structure as drawn.

One series deals with Bibionidae. The settings on record: chronic/long-term; duration: 17 days.
Another series concerns Apis mellifera. Conditions: acute; duration: 48 hours; oral; unspecified; mortality.
A further series has as its system Oncorhynchus mykiss. Conditions: acute; duration: 96 hours; mortality.
A further series relates to Tagia sp. The settings on record: acute; duration: 14 days; mortality.
In a further series the test system is Canidae. Conditions: chronic; duration: 1 years; oral; Dog Other; clinical chemistry.
Another series concerns Hypoaspis aculeifer. Conditions: chronic/long-term; duration: 14 days.
A further series has as its system Rattus norvegicus. The settings on record: oral.

By NOAEL is commonly meant the highest dose or exposure tested at which no adverse effect was seen. On to `C=CCOC(Cn1ccnc1)c1ccc(Cl)cc1Cl` (stereo not drawn) [Imazalil], for which the NOEC is 0.181 mg/L in the series on Bibionidae, 24 mg/kg-day in the series with Bird (chronic/long-term) and 107 mg/kg in the series on Hypoaspis aculeifer. For the same compound, the LD50 is more than 35.1 µg/piece with Apis mellifera; 510 mg/kg-day in the series with Bird (acute, oral, unspecified, mortality); 227 mg/kg-day in the series with Rattus norvegicus (acute, mortality). The LC50 with Oncorhynchus mykiss was 1.48 µg/mL (≈ 4.98 µM); in the series with Tagia sp., 541 mg/kg; in the series with Bird (short-term, oral, feed, mortality) it was more than 516 mg/kg-day. Also, the no-observed-adverse-effect level (NOAEL) amounted to 5 mg/kg-day in the series with Oryctolagus sp. (developmental, development); 2.5 mg/kg-day in the series on Canidae; 5 mg/kg-day in the series with Rattus norvegicus (chronic, duration: 6 months, clinical chemistry). The compound also had an NOEL in the series on Oryctolagus sp. (reproduction developmental, reproduction) of 20 mg/kg-day.
